The EC50 is the concentration that produces a half-maximal response. As usually defined, the IC50 is the concentration that gives 50% inhibition.

The structures appear in SMILES notation. Like-named read-outs stand apart in the source and are kept apart here.

Test [1] has as its system wild type HIV-1. The experiment in a line: microbe, parasite or virus in culture. It is filed as cell-based, human immunodeficiency virus type 1 (HIV-1).
Test [2] addresses T1, wild-type HIV reverse transcriptase (Human immunodeficiency virus type 1 group M subtype B, UniProt P04585).
T1 construct: wild-type and four mutant HIV reverse transcriptases
The test can be described thus: Activity on wild type reverse transcriptase (Table 1 IC50 WT). It is filed as biochemical. Here is the method:
Using similar methods as described above, 2-[5-bromo-4-(4-cyclopropylnaphthalen-1-yl)-4H-[1,2,4]triazol-3-ylsulfanyl]-N-(2-methyl-4-sulfamoylphenyeacetamide and 2-[5-bromo-4-(4-ethylnaphthalen-1-yl)-4H-[1,2,4]triazol-3-ylsulfanyl]-N-(2-chloro-4-sulfamoylphenyl)-acetamide were synthesized, as were the N-4-carbamyl analog, 2-[5-bromo-4-(4-ethyl-naphthalen-1-yl)-4H-[1,2,4]triazol-3-ylsulfanyl]-N-(2-chloro-4-carbamoylphenyl)-acetamide and the N-4-carboxyl analog. Each of the compounds was tested against a panel of mutant HIV reverse transcriptases, including 20 of the 22 of the mutants that are found in about 2% or more of the patient samples that are resistant to the most widely used non-nucleoside HIV-RT inhibitor efavirenz ((4S)-6-chloro-4-(cyclopropylethynyl)-1,4-dihydro-4-(trifluoromethyl)-2H-3,1-benzoxazin-2-one). […] In most cases both criteria were met. […] […].
Compounds of the invention were tested against the wild-type and four mutant HIV reverse transcriptases. The results are listed in Table 1 as EC50 (nM) and IC50 (nM). In the Table, A represents <50 nM, B is between 50 and 100 nM, and C is >100 nM. ND is not determined.

Test [3] concerns the target mutant HIV reverse transcriptases (Human immunodeficiency virus type 1, UniProt P12497, Y775L, cells depend on it). The class given is cell-based.
In test [4] the target is mutant HIV reverse transcriptases (Human immunodeficiency virus type 1, UniProt P12497, Y768C, cells depend on it). The class given is cell-based.
[5] abbreviates: Human immunodeficiency virus 1, Hela-JC53, read-out: EC50 WT.

On to `Cc1cc(C2CC2)c2ccccc2c1-n1c(Br)nnc1SCC(=O)Nc1ccc(S(N)(=O)=O)cc1Cl` [compound 50], for which the EC50 in test [1] (setting [5]), in test [3] and in test [4] was under 50 nM in each case. Besides, the IC50 in test [2] is under 50 nM.
As for `CNS(=O)(=O)c1ccc(NC(=O)CSc2nnc(C(F)F)n2-c2ccc(C)c3c2CCCC3)c(Cl)c1` [compound 51], the EC50 in test [1] (setting [5]), in test [3] and in test [4] was under 50 nM throughout. In addition, the IC50 in test [2] was under 50 nM.
With `Cc1cc(S(N)(=O)=O)ccc1NC(=O)CSc1nnc(CF)n1-c1c(C)cc(C)c2ccccc12` [compound 52], the EC50 in test [1] (setting [5]), in test [3] and in test [4] was under 50 nM in each case. In test [2], this molecule yielded an IC50 of under 50 nM.
For the molecule `CNS(=O)(=O)c1ccc(NC(=O)CSc2nnc(C(F)F)n2-c2ccc(C)c3ccccc23)c(Cl)c1` [compound 54], the EC50 was under 50 nM in test [1] (setting [5]), 50 to 100 nM in test [3] and under 50 nM in test [4]. The molecule further displayed an IC50 in test [2] of under 50 nM.
In the case of `CCc1ccc(-n2c(CF)nnc2SCC(=O)Nc2ccc(S(=O)(=O)NC)cc2Cl)c2ccccc12` [compound 55], the figures for the EC50 in test [1] (setting [5]), in test [3] and in test [4] were under 50 nM, 50 to 100 nM and under 50 nM, respectively. Besides, the IC50 in test [2] was in the range of 50 to 100 nM.
As to `CCOC(=O)C(C)NS(=O)(=O)c1ccc(NC(=O)CSc2nnc(C(F)F)n2-c2ccc(C)c3c2CCCC3)c(Cl)c1` (stereo not drawn) [compound 56], the EC50 is under 50 nM in test [1] (setting [5]), over 100 nM in test [3] and under 50 nM in test [4]. Also, the IC50 in test [2] was under 50 nM.
Consider `Cc1ccc(-n2c(SCC(=O)Nc3ccc(S(=O)(=O)NCCN4CCOCC4)cc3Cl)nnc2C(F)F)c2c1CCCC2` [compound 57], for which the concentration for a half-maximal effect (EC50) in test [1] (setting [5]) was under 50 nM; in test [3], 50 to 100 nM; in test [4] it was under 50 nM. This molecule registered an IC50 in test [2] of under 50 nM.
Regarding `Cc1ccc(-n2c(SCC(=O)Nc3ccc(S(=O)(=O)NCCC(=O)O)cc3Cl)nnc2C(F)F)c2c1CCCC2` [compound 58], the EC50 is 50 to 100 nM in test [1] (setting [5]), over 100 nM in test [3] and over 100 nM in test [4]. For the same molecule, the IC50 in test [2] is under 50 nM.
For the molecule `Cc1ccc(-n2c(SCC(=O)Nc3ccc(S(=O)(=O)NC(C)C(=O)O)cc3Cl)nnc2C(F)F)c2c1CCCC2` (stereo not drawn) [compound 59], the EC50 in test [1] (setting [5]), in test [3] and in test [4] was over 100 nM each time. This molecule registered an IC50 in test [2] of under 50 nM.
Turning to `Cc1ccc(-n2c(SCC(=O)Nc3ccc(S(=O)(=O)NC(C(=O)O)C(C)C)cc3Cl)nnc2C(F)F)c2c1CCCC2` (stereo not drawn) [compound 60], the EC50 in test [1] (setting [5]), in test [3] and in test [4] was over 100 nM in each case. The same molecule yielded an IC50 in test [2] of under 50 nM.
Consider `NS(=O)(=O)c1ccc(NC(=O)CSc2nnc(Br)n2-c2ccc(F)c3ccccc23)c(Cl)c1` [compound 61], for which the EC50 in test [1] (setting [5]), in test [3] and in test [4] was under 50 nM throughout. This molecule yielded an IC50 in test [2] of under 50 nM.
For `Cc1cc(S(N)(=O)=O)ccc1NC(=O)CSc1nnc(Br)n1-c1ccc(F)c2ccccc12` [compound 62], the figures for the EC50 in test [1] (setting [5]), in test [3] and in test [4] were under 50 nM, over 100 nM and under 50 nM, respectively. The IC50 in test [2] is under 50 nM.
`Cc1ccc2c(C)cc(C)c(-n3c(SCC(=O)Nc4ccc(S(N)(=O)=O)cc4Cl)nnc3C(F)F)c2n1` [compound 63]: the EC50 in test [1] (setting [5]), in test [3] and in test [4] was under 50 nM in each case. Also, the IC50 in test [2] is under 50 nM.
On to `Cc1ccc2c(C)cc(C)c(-n3c(SCC(=O)Nc4ccc(S(N)(=O)=O)cc4C)nnc3C(F)F)c2n1` [compound 64], for which the EC50 in test [1] (setting [5]), in test [3] and in test [4] was under 50 nM throughout. Also, the IC50 in test [2] was under 50 nM.
Regarding `Cc1cc(S(N)(=O)=O)ccc1NC(=O)CSc1nnc(CF)n1-c1ccc(C)c2c1CCCC2` [compound 65], the EC50 in test [1] (setting [5]) was under 50 nM; in test [3], 50 to 100 nM; in test [4], under 50 nM. Further, the IC50 in test [2] was under 50 nM.
As for `NS(=O)(=O)c1ccc(NC(=O)CSc2nncn2-c2ccc(C3CC3)c3ccccc23)c(Cl)c1` [compound 66], the EC50 in test [1] (setting [5]) is under 50 nM; in test [3], over 100 nM; in test [4] it was under 50 nM. Further, the IC50 in test [2] was under 50 nM.
With `CCc1ccc(-n2c(CF)nnc2SCC(=O)Nc2ccc(S(N)(=O)=O)cc2Cl)c2c1CCCC2` [compound 67], the EC50 in test [1] (setting [5]), in test [3] and in test [4] was under 50 nM each time. The IC50 in test [2] is under 50 nM.
As for `NS(=O)(=O)c1ccc(NC(=O)CSc2nnc(C(F)F)n2-c2ccc(C3CCCC3)c3ccccc23)c(Cl)c1` [compound 68], the values for the EC50 in test [1] (setting [5]), in test [3] and in test [4] were under 50 nM, over 100 nM and under 50 nM, respectively. The IC50 in test [2] was under 50 nM.
Consider `NS(=O)(=O)c1ccc(NC(=O)CSc2nnc(C(F)F)n2-c2ccc(C3CCC3)c3ccccc23)c(Cl)c1` [compound 69], for which the concentration for a half-maximal effect (EC50) in test [1] (setting [5]), in test [3] and in test [4] was under 50 nM throughout. In test [2], this molecule gave an IC50 of under 50 nM.
As to `CCc1ccc(-n2c(I)nnc2SCC(=O)Nc2ccc(S(N)(=O)=O)cc2Cl)c2ccccc12` [compound 70], the EC50 in test [1] (setting [5]), in test [3] and in test [4] was under 50 nM throughout. In addition, the IC50 in test [2] is under 50 nM.
As to `CC(C)c1ccc(-n2c(SCC(=O)Nc3ccc(S(N)(=O)=O)cc3Cl)nnc2C(F)F)c2ccccc12` [compound 71], the EC50 in test [1] (setting [5]), in test [3] and in test [4] was under 50 nM each time. In test [2], this molecule displayed an IC50 of under 50 nM.
Take `COc1ccc2c(C3CC3)ccc(-n3c(Br)nnc3SCC(=O)Nc3ccc(S(N)(=O)=O)cc3Cl)c2c1` [compound 72]: the concentration for a half-maximal effect (EC50) in test [1] (setting [5]), in test [3] and in test [4] was under 50 nM in each case. The molecule also returned an IC50 in test [2] of under 50 nM.
Consider `CCc1ccc(-n2c(Br)nnc2SCC(=O)Nc2ccc(S(N)(=O)=O)cc2Br)c2ccccc12` [compound 73], for which the EC50 in test [1] (setting [5]), in test [3] and in test [4] was under 50 nM each time. The IC50 in test [2] was under 50 nM.
As for `COc1ccc2c(C)ccc(-n3c(Br)nnc3SCC(=O)Nc3ccc(S(N)(=O)=O)cc3Br)c2c1` [compound 74], the EC50 in test [1] (setting [5]), in test [3] and in test [4] was under 50 nM in each case. Moreover, the IC50 in test [2] was under 50 nM.
For `NS(=O)(=O)c1ccc(NC(=O)CSc2nnc(Br)n2-c2ccc(C3CC3)cc2Cl)c(Cl)c1` [compound 75], the EC50 in test [1] (setting [5]), in test [3] and in test [4] was under 50 nM in each case. Besides, in test [2], the IC50 was under 50 nM.
With `Cc1cc(C)c2ccccc2c1-n1c(SCC(=O)Nc2ccc(S(N)(=O)=O)cc2Cl)nnc1C(F)(F)F` [compound 83], the EC50 in test [1] (setting [5]), in test [3] and in test [4] was under 50 nM each time. In test [2], this molecule showed an IC50 of under 50 nM.
For the molecule `Cc1cc(C)c2ccccc2c1-n1c(SCC(=O)Nc2ccc(S(N)(=O)=O)cc2Cl)nnc1C(F)(F)F` [compound 84], the EC50 in test [1] (read-out: EC50 WT, wild-type (WT) HIV-1) was under 50 nM; in test [3], under 50 nM; in test [4], under 50 nM. Also, in test [2] (read-out: IC50 WT RT, wild-type (WT) RT), the IC50 was under 50 nM.
